Reference: patent publication US11046672B2, “Indolinones compounds and their use in the treatment of fibrotic diseases” (RESPIVERT LIMITED, priority 2015, dated 2021)
Several values for one entry are separate records, joined by “and”; a condition that tells them apart may be missing. Equal entries are not always repeated. Where two headings read alike, the source gives them in different places.

Legend:
PDGFRβ [1] = target: T1, PDGFRβ (Homo sapiens (Human), UniProt P09619); assay: PDGF-BB induced phosphorylation of PDGFRβ in fibroblasts (MRC5 cells, HTRF); type: cell-based; details: MRC5 cells; n = 1 unless otherwise indicated; read-out: PDGFBB-induced PDGFRβ phosphorylation in MRC5 cells (IC50)
T1 sequence (P09619 33-1106): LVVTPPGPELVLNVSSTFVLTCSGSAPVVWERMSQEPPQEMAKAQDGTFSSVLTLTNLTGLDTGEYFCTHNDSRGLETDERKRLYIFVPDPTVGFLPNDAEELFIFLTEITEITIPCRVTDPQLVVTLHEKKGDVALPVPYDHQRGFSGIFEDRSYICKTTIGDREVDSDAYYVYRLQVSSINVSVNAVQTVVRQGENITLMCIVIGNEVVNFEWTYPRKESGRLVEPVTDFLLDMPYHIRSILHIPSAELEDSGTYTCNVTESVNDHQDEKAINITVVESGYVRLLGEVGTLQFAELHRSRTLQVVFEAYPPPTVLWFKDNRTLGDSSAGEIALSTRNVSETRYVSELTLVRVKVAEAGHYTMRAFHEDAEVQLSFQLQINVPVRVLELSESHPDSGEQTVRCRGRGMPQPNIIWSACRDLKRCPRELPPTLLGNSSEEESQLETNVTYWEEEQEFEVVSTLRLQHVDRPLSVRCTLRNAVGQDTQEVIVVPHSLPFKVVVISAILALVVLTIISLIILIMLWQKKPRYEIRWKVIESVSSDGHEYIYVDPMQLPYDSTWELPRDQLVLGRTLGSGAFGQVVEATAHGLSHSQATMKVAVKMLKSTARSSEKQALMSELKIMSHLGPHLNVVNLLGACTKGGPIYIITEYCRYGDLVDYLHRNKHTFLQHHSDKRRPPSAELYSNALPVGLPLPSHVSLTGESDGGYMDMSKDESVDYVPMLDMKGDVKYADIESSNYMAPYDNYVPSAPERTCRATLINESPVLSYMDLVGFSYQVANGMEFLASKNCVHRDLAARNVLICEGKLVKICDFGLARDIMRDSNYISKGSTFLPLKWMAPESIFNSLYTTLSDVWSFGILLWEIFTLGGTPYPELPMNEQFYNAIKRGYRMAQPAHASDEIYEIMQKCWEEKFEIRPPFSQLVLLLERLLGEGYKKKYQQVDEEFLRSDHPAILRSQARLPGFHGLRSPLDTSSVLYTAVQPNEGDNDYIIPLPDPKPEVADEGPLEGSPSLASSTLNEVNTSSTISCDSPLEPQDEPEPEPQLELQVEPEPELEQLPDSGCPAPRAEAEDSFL

PDGFRβ [2] = target: T1, PDGFRβ; assay: Duration of action (washout) against PDGF-BB induced phosphorylation of PDGFRβ in human fetal lung fibroblast cells; type: cell-based; details: MRC-5 cells
PAMPA permeability assay = type: in vitro ADME; details: PAMPA
[3] = Pharmacokinetic measurements in rats (intravenous and intra-tracheal dosing); type: in vivo; details: rat; for concentration at 6 h / concentration at 0.1 h / concentration at 1.5 h / concentration at 24 h: lung, read-out: lung concentration (nM) at time (h); for Kp at 6 h / Kp at 0.1 h / Kp at 1.5 h: lung/plasma
PDGFRβ [4] = target: T1, PDGFRβ; details: read-out: Ki PDGFRβ; mean, n = 2 unless otherwise indicated
MRC5 cells = assay: Cell viability assay in MRC5 cells (MTT)
[5] = male, CD, iv, i.v. dosing, 0.1 h
[6] = male, CD, iv, i.v. dosing, 1.5 h
[7] = male, CD, iv, i.v. dosing, 24 h
[8] = male, CD, other: intra-tracheal, i.t. dosing, 0.1 h
[9] = male, CD, other: intra-tracheal, i.t. dosing, 1.5 h
[10] = male, CD, other: intra-tracheal, i.t. dosing, 24 h
[11] = male, CD, iv, i.v. dosing, 0.1 h, read-out: lung/plasma ratio at time(h)
[12] = male, CD, iv, i.v. dosing, 1.5 h, read-out: lung/plasma ratio at time(h)
[13] = male, CD, other: intra-tracheal, i.t. dosing, 0.1 h, read-out: lung/plasma conc ratio at time(h)
[14] = male, CD, other: intra-tracheal, i.t. dosing, 1.5 h, read-out: lung/plasma conc ratio at time(h)

| SMILES | IC50 (PDGFRβ [1]) [nM] | concentration at 0.1 h [3, 5] [nM] | concentration at 1.5 h [3, 6] [nM] | concentration at 24 h [3, 7] [nM] | concentration at 0.1 h [3, 8] [nM] | concentration at 1.5 h [3, 9] [nM] | concentration at 24 h [3, 10] [nM] | Kp at 0.1 h [3, 11] | Kp at 1.5 h [3, 12] | Kp at 0.1 h [3, 13] | Kp at 1.5 h [3, 14] | Lung conc i.t./i.v. Ratio at time (h) ([3]; 0.1 h) | Lung conc i.t./i.v. Ratio at time (h) ([3]; 1.5 h) | Lung conc i.t./i.v. Ratio at time (h) ([3]; 24 h) | BAL % administered dose at time (h) ([3]; i.t. dosing, 0.1 h) [%] | BAL % administered dose at time (h) ([3]; i.t. dosing, 1.5 h) [%] | BAL % administered dose at time (h) ([3]; i.t. dosing, 24 h) [%] | BAL % administered dose at time (h) ([3]; i.v. dosing, 0.1 h) | BAL % administered dose at time (h) ([3]; i.v. dosing, 1.5 h) | BAL % administered dose at time (h) ([3]; i.v. dosing, 24 h) | further results |
| --- | --- | --- | --- | --- | --- | --- | --- | --- | --- | --- | --- | --- | --- | --- | --- | --- | --- | --- | --- | --- | --- |
| COC(=O)c1cc2c(cc1C)/C(=C(/Nc1ccc(C(=O)NOCCN3CCN(CCO)CC3)cc1)c1ccccc1)C(=O)N2 [Example 7, (Z)-Methyl 3-(((4-((2-(4-(2-hydroxyethyl)piperazin-1-yl)ethoxy)carbamoyl)phenyl)amino)(phenyl)methylene)-5-methyl-2-oxoindoline-6-carboxylate] | 10.4 | 329 | 172 | 30 | 2100 | 881 | 519 | 17 | 15 | 233 | 114 | 6 | 5 | 17 | 5.3 | 0.2 | 0.1 | BLQ | BLQ | BLQ | % phos: percentage phosphorylation after wash-out relative to maximal phosphorylation (100%) (PDGFRβ [2]; after wash-out, rhuPDGF-BB, experiments in Groups 1-4): 84.7%; recovery at 5 hr, 10 μM (PAMPA permeability assay; pH 7, PAMPA, donor and acceptor compartments): 58.1%; Papp at 5 h, 10 μM (PAMPA permeability assay; pH 7, pH 7, 10 μM, 5 hr): 0.0245 ×10⁻⁶ cm/s; concentration at 6 h ([3]; male, CD, iv, 0.1 mg/kg, i.v. dosing, 6 h): 69 nM; concentration at 6 h ([3]; male, CD, other: intra-tracheal, i.t. dosing, 6 h): 1000 nM; Kp at 6 h ([3]; male, CD, iv, 0.1 mg/kg, i.v. dosing, 6 h, read-out: lung/plasma ratio at time(h)): 10; Kp at 6 h ([3]; male, CD, other: intra-tracheal, i.t. dosing, 6 h, read-out: lung/plasma conc ratio at time(h)): 114; Lung conc i.t./i.v. Ratio at time (h) ([3]; 6 h): 15; BAL % administered dose at time (h) ([3]; i.t. dosing, 6 h): 0.3%; BAL % administered dose at time (h) ([3]; i.v. dosing, 6 h): BLQ; Ki (PDGFRβ [4]): 6.6 nM; Cell viability at 100 nM (%) (MRC5 cells): 90.7%; Cell viability at 300 nM (%) (MRC5 cells): 98%; Cell viability at 1000 nM (%) (MRC5 cells): 86.8% |
| COC(=O)c1ccc2c(c1)NC(=O)/C2=C(\Nc1ccc(C(=O)NOCCN2CCN(C)CC2)cc1)c1ccccc1 [Example 4, (Z)-Methyl 3-(((4-((2-(4-methylpiperazin-1-yl)ethoxy)carbamoyl)phenyl)amino)(phenyl)methylene)-2-oxoindoline-6-carboxylate] | 15.2 | 419 | 266 | 12 | 5540 | 1540 | 218 | 77 | 285 | 279 | 1320 | 13.2 | 5.8 | 18.2 | 3 | 0.3 | 0.1 | 0.01% | BLQ | BLQ | Duration of action as inhibitors of PDGFRβ compared with nintedanib (PDGFRβ [2]; wash-out): longer duration of action; % Recovery (PAMPA permeability assay; donor and acceptor compartments): 44.9% and 75.6%; MRT ([3]; male, CD, plasma, iv, i.v. dosing): 2.4 h; clearance ([3]; male, CD, plasma, iv, i.v. dosing (i.v. dose 0.1-0.5 per compound)): 462 mL/min/kg; Vd ([3]; male, CD, plasma, iv, i.v. dosing, read-out: Vss): 39 L/kg; half-life ([3]; male, CD, plasma, iv, i.v. dosing, read-out: t½ (converted)): 2.2 h; i.t. BAV (%) ([3]; i.t. dosing (i.t. dose 0.1-0.5 per compound)): 67%; lung/plasma ratio at time(h) ([3]; i.v. dosing, 24 h): BLQ; Ki (PDGFRβ [4]): 9.66 nM; Cell viability at 100 nM (%) (MRC5 cells): 99.2%; Cell viability at 300 nM (%) (MRC5 cells): 94.8%; Cell viability at 1000 nM (%) (MRC5 cells): 88.8% |
